Experimental findings from PMC6968685 (Journal of Enzyme Inhibition and Medicinal Chemistry, 2020) are described below.

Where a name gives a salt, the structure may show the parent alone.

Compound `COc1ccc2c(-c3ccc(CNCCCCN4CCN(C)CC4)cc3)cc(-c3ccc(CNCCCCN4CCN(C)CC4)cc3)nc2c1` (as salt: (cooh)2) [Compound 1o, 7-Methoxy-2,4-bis{4-[(4–(4-methylpiperazin-1-yl)butyl)aminomethyl]phenyl}quinoline] yielded a melting point of 237 to 239 °C.
Regarding `COc1ccc2c(-c3ccc(CNCCCCN4CCN(C)CC4)cc3)nc(-c3ccc(CNCCCCN4CCN(C)CC4)cc3)nc2c1` (as salt: (cooh)2) [Compound 3p, 7-Methoxy-2,4-bis{4-[(4–(4-methylpiperazin-1-yl)butyl)aminomethyl]phenyl}quinazoline], the melting point fell in the range of 222 to 224 °C.
In turn, `COc1ccc2nc(-c3ccc(CNCCCN(C)C)cc3)cc(-c3ccc(CNCCCN(C)C)cc3)c2c1` (as salt: (cooh)2) [Compound 1j, 6-Methoxy-2,4-bis{4-[(3-dimethylaminopropyl)aminomethyl]phenyl}quinoline] showed a melting point of 224 to 226 °C.
In the case of `COc1ccc2nc(-c3ccc(CNCCCN4CCN(C)CC4)cc3)nc(-c3ccc(CNCCCN4CCN(C)CC4)cc3)c2c1` (as salt: (cooh)2) [Compound 3k, 6-Methoxy-2,4-bis{4-[(3–(4-methylpiperazin-1-yl)propyl)aminomethyl]phenyl}quinazoline] it was 227 to 229 °C; in that of `COc1ccc2c(-c3ccc(CNCCCCN(C)C)cc3)nc(-c3ccc(CNCCCCN(C)C)cc3)nc2c1` (as salt: (cooh)2) [Compound 3m, 7-Methoxy-2,4-bis{4-[(4-dimethylaminobutyl)aminomethyl]phenyl}quinazoline], 216 to 218 °C; in that of `CN1CCN(CCCCNCc2ccc(-c3cc(-c4ccc(CNCCCCN5CCN(C)CC5)cc4)c4ccccc4n3)cc2)CC1` (as salt: (cooh)2) [Compound 1d, 2,4-Bis{4-[(4–(4-methylpiperazin-1-yl)butyl)aminomethyl]phenyl}quinoline], 225 to 227 °C.
Take `COc1ccc2c(-c3ccc(CNCCCN4CCN(C)CC4)cc3)cc(-c3ccc(CNCCCN4CCN(C)CC4)cc3)nc2c1` (as salt: (cooh)2) [Compound 1p, 7-Methoxy-2,4-bis{4-[(3–(4-methylpiperazin-1-yl)propyl)aminomethyl]phenyl}quinoline]: the melting point lay in the range of 245 to 247 °C.
Compound `CN1CCN(CCCNCc2ccc(-c3cc4ccccc4c(-c4ccc(CNCCCN5CCN(C)CC5)cc4)n3)cc2)CC1` (as salt: (cooh)2) [Compound 2d, 1,3-Bis{4-[(3–(4-methylpiperazin-1-yl)propyl)aminomethyl]phenyl}isoquinoline] registered a melting point of 217 to 219 °C.
`c1ccc2c(-c3ccc(CNCCCN4CCOCC4)cc3)nc(-c3ccc(CNCCCN4CCOCC4)cc3)nc2c1` (as salt: (cooh)2) [Compound 3f, 2,4-Bis{4-[(3-morpholinopropyl)aminomethyl]phenyl}quinazoline] had a melting point of 183 to 185 °C.
For the compound `CN1CCN(CCCNCc2ccc(-c3nc(-c4ccc(CNCCCN5CCN(C)CC5)cc4)c4ccccc4n3)cc2)CC1` (as salt: (cooh)2) [Compound 3e, 2,4-Bis{4-[(3–(4-methylpiperazin-1-yl)propyl)aminomethyl]phenyl}quinazoline], the melting point was 229 to 231 °C.
`c1ccc2c(-c3ccc(CNCCN4CCOCC4)cc3)cc(-c3ccc(CNCCN4CCOCC4)cc3)nc2c1` (as salt: (cooh)2) [Compound 1h, 2,4-Bis{4-[(2-morpholinoethyl)aminomethyl]phenyl}quinoline] gave a melting point of 235 to 237 °C.
In turn, `CN(C)CCNCc1ccc(-c2nc(-c3ccc(CNCCN(C)C)cc3)c3ccccc3n2)cc1` (as salt: (cooh)2) [Compound 3c, 2,4-Bis{4-[(2-dimethylaminoethyl)aminomethyl]phenyl}quinazoline] came in with a melting point of 203 to 205 °C.
`COc1ccc2c(-c3ccc(CNCCCN4CCN(C)CC4)cc3)nc(-c3ccc(CNCCCN4CCN(C)CC4)cc3)cc2c1` (as salt: (cooh)2) [Compound 2l] gave a melting point of 226 to 228 °C.
In the case of `COc1ccc2cc(-c3ccc(CNCCCCN(C)C)cc3)nc(-c3ccc(CNCCCCN(C)C)cc3)c2c1` (as salt: (cooh)2) [Compound 2e, 7-Methoxy-1,3-bis{4-[(4-dimethylaminobutyl)aminomethyl]phenyl}isoquinoline] it was 157 to 159 °C.
Compound `COc1ccc2nc(-c3ccc(CNCCN(C)C)cc3)nc(-c3ccc(CNCCN(C)C)cc3)c2c1` (as salt: (cooh)2) [Compound 3j, 6-Methoxy-2,4-bis{4-[(2-dimethylaminoethyl)aminomethyl]phenyl}quinazoline] gave a melting point of 233 to 235 °C.
In the case of `COc1ccc2c(-c3ccc(CNCCCN(C)C)cc3)nc(-c3ccc(CNCCCN(C)C)cc3)cc2c1` (as salt: (cooh)2) [Compound 2j, 6-Methoxy-1,3-bis{4-[(3-dimethylaminopropyl)aminomethyl]phenyl}isoquinoline] it was 171 to 173 °C; in that of `CN1CCN(CCCNCc2ccc(-c3cc(-c4ccc(CNCCCN5CCN(C)CC5)cc4)c4ccccc4n3)cc2)CC1` (as salt: (cooh)2) [Compound 1e, 2,4-Bis{4-[(3–(4-methylpiperazin-1-yl)propyl)aminomethyl]phenyl}quinoline], 249 to 251 °C; in that of `COc1ccc2c(-c3ccc(CNCCCCN(C)C)cc3)cc(-c3ccc(CNCCCCN(C)C)cc3)nc2c1` (as salt: (cooh)2) [Compound 1m, 7-Methoxy-2,4-bis{4-[(4-dimethylaminobutyl)aminomethyl]phenyl}quinoline], 208 to 210 °C.
`COc1ccc2c(-c3ccc(CNCCN4CCN(C)CC4)cc3)nc(-c3ccc(CNCCN4CCN(C)CC4)cc3)nc2c1` (as salt: (cooh)2) [Compound 3r, 7-Methoxy-2,4-bis{4-[(2–(4-methylpiperazin-1-yl)ethyl)aminomethyl]phenyl}quinazoline] returned a melting point of 238 to 240 °C.
As for `COc1ccc2c(-c3ccc(CNCCCN(C)C)cc3)cc(-c3ccc(CNCCCN(C)C)cc3)nc2c1` (as salt: (cooh)2) [Compound 1n, 7-Methoxy-2,4-bis{4-[(3-dimethylaminopropyl)aminomethyl]phenyl}quinoline], the melting point fell in the range of 237 to 239 °C.
In the case of `CN(C)CCCNCc1cccc(-c2nc(-c3cccc(CNCCCN(C)C)c3)c3ccccc3n2)c1` (as salt: (cooh)2) [Compound 3s, 2,4-Bis{3-[(3-dimethylaminopropyl)aminomethyl]phenyl}quinazoline], the melting point was above 260 °C.
To `CN(C)CCCCNCc1ccc(-c2cc3ccccc3c(-c3ccc(CNCCCCN(C)C)cc3)n2)cc1` (as salt: (cooh)2) [Compound 2a, 1,3-Bis{4-[(4-dimethylaminobutyl)aminomethyl]phenyl}isoquinoline] belongs 184 to 186 °C.
`CN(C)CCCCNCc1ccc(-c2nc(-c3ccc(CNCCCCN(C)C)cc3)c3ccccc3n2)cc1` (as salt: (cooh)2) [Compound 3a, 2,4-Bis{4-[(4-dimethylaminobutyl)aminomethyl]phenyl}quinazoline] showed a melting point of 153 to 155 °C.
To `CN1CCN(CCCCNCc2ccc(-c3nc(-c4ccc(CNCCCCN5CCN(C)CC5)cc4)c4ccccc4n3)cc2)CC1` (as salt: (cooh)2) [Compound 3d, 2,4-Bis{4-[(4–(4-methylpiperazin-1-yl)butyl)aminomethyl]phenyl}quinazoline] belongs 223 to 225 °C; to `CN(C)CCCNCc1ccc(-c2nc(-c3ccc(CNCCCN(C)C)cc3)c3ccccc3n2)cc1` (as salt: (cooh)2) [Compound 3b, 2,4-Bis{4-[(3-dimethylaminopropyl)aminomethyl]phenyl}quinazoline], 203 to 205 °C; to `CN1CCN(CCCNCc2cccc(-c3cc(-c4cccc(CNCCCN5CCN(C)CC5)c4)c4ccccc4n3)c2)CC1` (as salt: (cooh)2) [Compound 1r, 2,4-Bis{3-[(3–(4-methylpiperazin-1-yl)propyl)aminomethyl]phenyl}quinoline], 237 to 239 °C.
Compound `COc1ccc2nc(-c3ccc(CNCCCCN4CCN(C)CC4)cc3)cc(-c3ccc(CNCCCCN4CCN(C)CC4)cc3)c2c1` (as salt: (cooh)2) [Compound 1k, 6-Methoxy-2,4-bis{4-[(4–(4-methylpiperazin-1-yl)butyl)aminomethyl]phenyl}quinoline] registered a melting point of 235 to 237 °C.
`COc1ccc2nc(-c3ccc(CNCCCCN(C)C)cc3)cc(-c3ccc(CNCCCCN(C)C)cc3)c2c1` (as salt: (cooh)2) [Compound 1i, 6-Methoxy-2,4-bis{4-[(4-dimethylaminobutyl)aminomethyl]phenyl}quinoline] came in with a melting point of 227 to 229 °C.
In the case of `COc1ccc2c(-c3ccc(CNCCCN4CCN(C)CC4)cc3)nc(-c3ccc(CNCCCN4CCN(C)CC4)cc3)nc2c1` (as salt: (cooh)2) [Compound 3q, 7-Methoxy-2,4-bis{4-[(3–(4-methylpiperazin-1-yl)propyl)aminomethyl]phenyl}quinazoline] it was 229 to 231 °C; in that of `CN1CCN(CCNCc2ccc(-c3cc(-c4ccc(CNCCN5CCN(C)CC5)cc4)c4ccccc4n3)cc2)CC1` (as salt: (cooh)2) [Compound 1f, 2,4-Bis{4-[(2–(4-methylpiperazin-1-yl)ethyl)aminomethyl]phenyl}quinoline], 240 to 242 °C.
In the case of `COc1ccc2cc(-c3ccc(CNCCCN4CCN(C)CC4)cc3)nc(-c3ccc(CNCCCN4CCN(C)CC4)cc3)c2c1` (as salt: (cooh)2) [Compound 2h, 7-Methoxy-1,3-bis{4-[(3–(4-methylpiperazin-1-yl)propyl)aminomethyl]phenyl}isoquinoline], the melting point is 195 to 197 °C.
Turning to `CN1CCN(CCCCNCc2ccc(-c3cc4ccccc4c(-c4ccc(CNCCCCN5CCN(C)CC5)cc4)n3)cc2)CC1` (as salt: (cooh)2) [Compound 2c, 1,3-Bis{4-[(4–(4-methylpiperazin-1-yl)butyl)aminomethyl]phenyl}isoquinoline], the melting point is 181 to 183 °C.
For the compound `COc1ccc2cc(-c3ccc(CNCCCCN4CCN(C)CC4)cc3)nc(-c3ccc(CNCCCCN4CCN(C)CC4)cc3)c2c1` (as salt: (cooh)2) [Compound 2g, 7-Methoxy-1,3-bis{4-[(4–(4-methylpiperazin-1-yl)butyl)aminomethyl]phenyl}isoquinoline], the melting point was 172 to 174 °C.

In general, melting point refers to the temperature, or range, at which the solid turns liquid.
